Source: PubChem BioAssay AID248 (DTP/NCI, 2004)
Values joined by “and” are separate entries in the source; they are usually repeats but may differ in a detail not shown here. Identical values can stand only once. Inconclusive results and toxic doses are left out. Rule as the data show it: active = T/C of 150% or more; inactive = T/C below 125%.

Test system: L1210 leukemia ip in BDF1 mice, survival T/C
Assay: NCI In Vivo Anticancer Drug Screen. Data for tumor model L1210 Leukemia (intraperitoneal) in B6D2F1 (BDF1) mice
Conditions: endpoint: mean survival time, higher = longer survival
How it was run: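 Mice bearing the transplanted tumor received compound or vehicle. Survival of the treated group was divided by that of the vehicle-treated control group to give the ratio.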

[1] = dose: 100.0 mg/kg/injection, schedule: Q01DX001 (ip), vehicle: saline
[2] = dose: 100.0 mg/kg/injection, schedule: Q04DX003 (ip), vehicle: saline
[3] = dose: 200.0 mg/kg/injection, schedule: Q01DX001 (ip), vehicle: saline
[4] = dose: 200.0 mg/kg/injection, schedule: Q04DX003 (ip), vehicle: saline
[5] = dose: 400.0 mg/kg/injection, schedule: Q01DX001 (ip), vehicle: saline
[6] = dose: 400.0 mg/kg/injection, schedule: Q04DX003 (ip), vehicle: saline
[7] = dose: 100.0 mg/kg/injection, schedule: Q04DX002 (ip), vehicle: saline with Tween-80
[8] = dose: 200.0 mg/kg/injection, schedule: Q04DX002 (ip), vehicle: saline with Tween-80
[9] = dose: 400.0 mg/kg/injection, schedule: Q04DX002 (ip), vehicle: saline with Tween-80
[10] = dose: 50.0 mg/kg/injection, schedule: Q01DX001 (ip), vehicle: saline
[11] = dose: 100.0 mg/kg/injection, schedule: Q01DX009 (ip), vehicle: Klucel (hydroxypropylcellulose) (HPC)
[12] = dose: 200.0 mg/kg/injection, schedule: Q01DX009 (ip), vehicle: Klucel (hydroxypropylcellulose) (HPC)
[13] = dose: 400.0 mg/kg/injection, schedule: Q01DX009 (ip), vehicle: Klucel (hydroxypropylcellulose) (HPC)
[14] = dose: 100.0 mg/kg/injection, schedule: Q01DX009 (ip), vehicle: saline
[15] = dose: 100.0 mg/kg/injection, schedule: Q04DX003 (ip), vehicle: saline with Tween-80
[16] = dose: 200.0 mg/kg/injection, schedule: Q04DX003 (ip), vehicle: saline with Tween-80
[17] = dose: 100.0 mg/kg/injection, schedule: Q01DX001 (ip), vehicle: other

Measured: T/C

ClCC1COCO1 (stereo not given)
inactive: dose: 12.5 mg/kg/injection, schedule: Q01DX009 (ip), vehicle: saline with Tween-80 107 % of control | dose: 25.0 mg/kg/injection, schedule: Q01DX009 (ip), vehicle: saline with Tween-80 102 % of control | dose: 50.0 mg/kg/injection, schedule: Q01DX009 (ip), vehicle: saline with Tween-80 106 % of control

CCC1=C/C(=C/c2cc(Cl)ccc2O)C(=O)S1
inactive: dose: 100.0 mg/kg/injection, schedule: Q01DX001 (ip), vehicle: saline with Tween-80 91 % of control | dose: 200.0 mg/kg/injection, schedule: Q01DX001 (ip), vehicle: saline with Tween-80 87 % of control | dose: 400.0 mg/kg/injection, schedule: Q01DX001 (ip), vehicle: saline with Tween-80 94 % of control

O=C(O)CCCN1C/C(=C\c2ccc(Cl)cc2)C(=O)C1=O
inactive: [1] 97 % of control | [2] 98 % of control | [3] 102 % of control | [4] 98 % of control | [5] 107 % of control | [6] 96 % of control

N#Cc1ccc(Cl)cc1
inactive: dose: 100.0 mg/kg/injection, schedule: Q04DX002 (ip), vehicle: Klucel (hydroxypropylcellulose) (HPC) 100 % of control | dose: 200.0 mg/kg/injection, schedule: Q04DX002 (ip), vehicle: Klucel (hydroxypropylcellulose) (HPC) 102 % of control

N#CC1(C(=O)c2ccccc2)C=Cc2ccccc2N1C(=O)c1ccccc1 (stereo not given)
inactive: dose: 100.0 mg/kg/injection, schedule: Q01DX001 (ip), vehicle: steriod suspending solution 87 % of control | dose: 200.0 mg/kg/injection, schedule: Q01DX001 (ip), vehicle: steriod suspending solution 90 % of control | dose: 400.0 mg/kg/injection, schedule: Q01DX001 (ip), vehicle: steriod suspending solution 92 % of control

CCOC(=O)c1ccc(N)cc1C(=O)OCC
inactive: dose: 100.0 mg/kg/injection, schedule: Q01DX001 (ip), vehicle: Klucel (hydroxypropylcellulose) (HPC) 93 % of control | dose: 200.0 mg/kg/injection, schedule: Q01DX001 (ip), vehicle: Klucel (hydroxypropylcellulose) (HPC) 95 % of control | dose: 400.0 mg/kg/injection, schedule: Q01DX001 (ip), vehicle: Klucel (hydroxypropylcellulose) (HPC) 87 % of control

IC1CCC2OC1CCC2I (stereo not given)
inactive: [7] 94 % of control | [8] 94 % of control | [9] 109 % of control

COC(=O)CCCN1C(=O)c2ccccc2C1=O
inactive: dose: 100.0 mg/kg/injection, schedule: Q04DX002 (ip), vehicle: carboxymethylcellulose (CMC) 102 % of control and 87 % of control | dose: 100.0 mg/kg/injection, schedule: Q04DX003 (ip), vehicle: carboxymethylcellulose (CMC) 94 % of control | dose: 200.0 mg/kg/injection, schedule: Q04DX002 (ip), vehicle: carboxymethylcellulose (CMC) 97 % of control and 91 % of control | dose: 200.0 mg/kg/injection, schedule: Q04DX003 (ip), vehicle: carboxymethylcellulose (CMC) 92 % of control | dose: 400.0 mg/kg/injection, schedule: Q04DX002 (ip), vehicle: carboxymethylcellulose (CMC) 93 % of control and 90 % of control | dose: 400.0 mg/kg/injection, schedule: Q04DX003 (ip), vehicle: carboxymethylcellulose (CMC) 99 % of control

N#CCc1cc2c(cc1[N+](=O)[O-])OCO2
inactive: [1] 97 % of control | [3] 87 % of control | [5] 97 % of control

N#CC1(NC(Cc2ccccc2)c2ccccc2)CCCCCCCCCCC1 (stereo not given)
inactive: [7] 101 % of control | [8] 94 % of control | [9] 97 % of control

O=C(CCCC(=O)NNC(=S)Nc1ccccc1)NNC(=S)Nc1ccccc1
inactive: [10] 100 % of control | [1] 100 % of control | [3] 97 % of control | [5] 100 % of control

Cc1ccc(SP(=S)(Sc2ccc(C)cc2)Sc2ccc(C)cc2)cc1
inactive: [11] 97 % of control | [12] 97 % of control | [13] 94 % of control

CC(C)CCCC(C)C1CCC2C3CC=C4CC(S)CCC4(C)C3CCC12C (stereo not given)
inactive: dose: 60.0 mg/kg/injection, schedule: Q04DX003 (sc), vehicle: steriod suspending solution 100 % of control | dose: 120.0 mg/kg/injection, schedule: Q04DX003 (sc), vehicle: steriod suspending solution 109 % of control | dose: 240.0 mg/kg/injection, schedule: Q04DX003 (sc), vehicle: steriod suspending solution 105 % of control

O=C(O)CN(CC(=O)O)c1ccc(/C=C/c2ccc(N(CC(=O)O)CC(=O)O)c(S(=O)(=O)O)c2)cc1S(=O)(=O)O
inactive: [14] 100 % of control | [2] 112 % of control | dose: 200.0 mg/kg/injection, schedule: Q01DX009 (ip), vehicle: saline 105 % of control | [4] 100 % of control | dose: 400.0 mg/kg/injection, schedule: Q01DX009 (ip), vehicle: saline 103 % of control | [6] 100 % of control

CCCCOP(=O)(/C=C/c1cccs1)OCCCC
inactive: [15] 100 % of control | [16] 94 % of control

CC1CCCC(C)N1C(=O)Nc1cccc(F)c1 (stereo not given)
inactive: [11] 99 % of control | [12] 101 % of control | [13] 94 % of control

COc1ccc(C(=O)c2ccccc2)c(OC(=O)Nc2ccc(Cl)cc2)c1
inactive: [11] 109 % of control | [12] 105 % of control | [13] 100 % of control

CC/C(C)=C\CC/C(C)=C/COc1cccc([N+](=O)[O-])c1
inactive: dose: 50.0 mg/kg/injection, schedule: Q01DX009 (ip), vehicle: carboxymethylcellulose (CMC) 97 % of control | dose: 100.0 mg/kg/injection, schedule: Q01DX009 (ip), vehicle: carboxymethylcellulose (CMC) 92 % of control | dose: 200.0 mg/kg/injection, schedule: Q01DX009 (ip), vehicle: carboxymethylcellulose (CMC) 101 % of control

C/C(CCC1=CC=CC1=O)=N\NC(N)=O
inactive: [17] 98 % of control

O=C(/C=C/C(=O)NCc1ccccc1)NCc1ccccc1
inactive: [2] 100 % of control | [4] 103 % of control | [6] 100 % of control

O=C(CCN1CC1)Nc1ccccc1
inactive: dose: 3.12 mg/kg/injection, schedule: Q01DX009 (ip), vehicle: Klucel (hydroxypropylcellulose) (HPC) 110 % of control | dose: 6.25 mg/kg/injection, schedule: Q01DX009 (ip), vehicle: Klucel (hydroxypropylcellulose) (HPC) 108 % of control | dose: 12.5 mg/kg/injection, schedule: Q01DX009 (ip), vehicle: Klucel (hydroxypropylcellulose) (HPC) 106 % of control | dose: 12.5 mg/kg/injection, schedule: Q04DX003 (ip), vehicle: Klucel (hydroxypropylcellulose) (HPC) 107 % of control | dose: 25.0 mg/kg/injection, schedule: Q01DX009 (ip), vehicle: Klucel (hydroxypropylcellulose) (HPC) 106 % of control | dose: 25.0 mg/kg/injection, schedule: Q04DX003 (ip), vehicle: Klucel (hydroxypropylcellulose) (HPC) 91 % of control | dose: 50.0 mg/kg/injection, schedule: Q01DX009 (ip), vehicle: Klucel (hydroxypropylcellulose) (HPC) 102 % of control | dose: 50.0 mg/kg/injection, schedule: Q04DX003 (ip), vehicle: Klucel (hydroxypropylcellulose) (HPC) 95 % of control | [2] 91 % of control

Cc1cccnc1N
inactive: [7] 104 % of control | [8] 107 % of control

COc1cc(/C=N\NC(=O)c2ccncc2)ccc1O
inactive: [15] 100 % of control | [16] 97 % of control | dose: 400.0 mg/kg/injection, schedule: Q04DX003 (ip), vehicle: saline with Tween-80 103 % of control

CC/C(=N/OC(=O)N(CC)CC)c1ccccc1
inactive: [17] 96 % of control | dose: 200.0 mg/kg/injection, schedule: Q01DX001 (ip), vehicle: other 91 % of control | dose: 400.0 mg/kg/injection, schedule: Q01DX001 (ip), vehicle: other 93 % of control

CCCCCCCCCCCCCC[S+](C)C
inactive: dose: 12.5 mg/kg/injection, schedule: Q01DX009 (ip), vehicle: saline 108 % of control | dose: 12.5 mg/kg/injection, schedule: Q04DX003 (ip), vehicle: saline 101 % of control | dose: 25.0 mg/kg/injection, schedule: Q01DX009 (ip), vehicle: saline 123 % of control | dose: 25.0 mg/kg/injection, schedule: Q04DX003 (ip), vehicle: saline 90 % of control | dose: 50.0 mg/kg/injection, schedule: Q04DX003 (ip), vehicle: saline 96 % of control

COS(=O)(=O)CCCCCC[N+](C)(C)C
inactive: [10] 93 % of control | [1] 102 % of control | [3] 98 % of control

Cc1cc(=O)[nH]c2c1CCC2
inactive: dose: 50.0 mg/kg/injection, schedule: Q01DX009 (ip), vehicle: saline 92 % of control | [14] 95 % of control | [2] 106 % of control | [4] 108 % of control
